Experimental findings from patent US9402911B2, “Multifunctional small molecules” (The Regents of the University of Michigan, priority 2011, dated 2016) are described below.

The structures appear in SMILES notation.

The target of the experiment is Folate binding protein (FBP, bovine milk) (Bos taurus, UniProt P02702). Kind of experiment: SPR binding to immobilized folate binding protein. The note with it: read-out: equilibrium dissociation constant KD, FBP chip, free MTX.
Folate binding protein (FBP, bovine milk), sequence (P02702 20-234): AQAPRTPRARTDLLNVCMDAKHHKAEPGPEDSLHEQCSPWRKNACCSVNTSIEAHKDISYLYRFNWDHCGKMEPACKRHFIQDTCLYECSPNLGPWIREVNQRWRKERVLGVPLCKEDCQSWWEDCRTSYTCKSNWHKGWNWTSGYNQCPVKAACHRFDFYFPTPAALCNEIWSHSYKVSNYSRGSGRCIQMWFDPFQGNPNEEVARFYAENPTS

Description: SPR analysis was performed in a Biacore® X instrument (Pharmacia Biosensor AB, Uppsala, Sweden).
Folate binding protein (FBP)-presenting chip was prepared at the surface protein density of 11 ng/mm^2 (≈2-3 FBP per 10 nm^2) following an EDC-based amide coupling method as described previously (see, e.g., Hong, S.; et al., Chem. Biol. 2007, 14, 107-15; Plantinga, A.; et al., ACS Med. Chem. Lett. 2011, 2, 363-67; each herein incorporated by reference in their entireties).
In an approach to determine the equilibrium dissociation constants (KD) for G5-MTXn on a quantitative basis, the SPR data was analyzed by using the non-linear regression method as established for SPR analysis (see, e.g., Ober, R. J.; et al., Anal. Biochem. 2003, 312, 57-65; herein incorporated by reference in its entirety). This analytical method enabled the SPR data to be fit according to a linear combination of exponential functions, and to extract the estimates for their kinetic rate constants (kon, koff) and KD (FIG. 7).

`CN(Cc1cnc2nc(N)nc(N)c2n1)c1ccc(C(=O)N[C@@H](CCC(=O)O)C(=O)O)cc1` [MTX, methotrexate]: the Kd came out at 24 µM.

By Kd is commonly meant the free concentration of one partner at which half of the binding sites on the other are occupied at equilibrium, for simple one-to-one binding.
